Holding throughout (assay): NCI anticancer screen, dose series, 48 h
In test [1] the test system is HS 578T breast.
Test [2] relates to SW-620 colon.
In test [3] the test system is NCI-H23 lung.
In test [4] the test system is MCF7 breast.
The subject of test [5] is NCI-H522 lung.
Test [6] deals with SF-539 CNS.
Test [7] deals with NCI-H226 lung.
The test system of test [8] is TK-10 renal.
The test system of test [9] is 786-0 renal.
Test [10] concerns LOX IMVI melanoma.

Each structure is given as a SMILES string.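 Five concentrations, 48 hours, 96-well plates. Abbreviation: GI50, concentration required for 50% inhibition of growth. At the TGI there is no net growth.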

`COc1cc(N2CCC(N)CC2)ccc1Nc1ncc(Cl)c(-c2c[nH]c3ccccc23)n1`: the GI50 in test [1] is 0.741 µM; in [2], 0.183 µM; in [3], 0.925 µM; in test [4], 0.0283 µM; in [5], 0.447 µM; in test [6], 0.437 µM. Besides, the GI50 in test [7] is 0.334 µM; in test [8] it was 0.36 µM; in [9], 0.546 µM; in [10], 0.226 µM. Besides, the TGI in [1] came out at 3.87 µM; in test [2], 1.44 µM; in test [3], 3.06 µM; in test [4], 1.41 µM; in [5], 1.85 µM; in test [6] it was 1.7 µM. Moreover, the TGI was 3.59 µM in test [7], 1.6 µM in test [8], 1.95 µM in test [9] and 1.58 µM in [10].

Consider `COC(=O)c1cccc(NC(=O)c2ccc(NC3=C(Cl)C(=O)N(Cc4ccccc4)C3=O)cc2)c1`, for which the GI50 in [1] is 22 µM; in test [2], 22.3 µM; in test [3], 8.57 µM; in test [4], 22.3 µM; in [5], 7.52 µM; in [6], 14.7 µM. The GI50 in test [7] is 7.25 µM; in [8] it was 23.4 µM; in [9], 10.5 µM; in [10], 1.76 µM. For the same molecule, the TGI in test [1] was 69.4 µM; in test [2], 86.5 µM; in [3], 22.4 µM; in [4], 49.7 µM; in [5] it was 32.8 µM; in test [6] it was 29.5 µM. Besides, the TGI worked out at 35.2 µM in test [7], 63.4 µM in test [8], 25.2 µM in test [9] and 16.2 µM in [10].

Regarding `Cn1c(=O)c(Oc2ccc(F)cc2F)cc2cnc(NCC(C)(C)O)nc21`, the GI50 in test [1], in [2], in test [3], in [4], in test [5] and in test [6] was > 25 µM each time. Moreover, the GI50 in test [7], in test [8], in [9] and in [10] was > 25 µM each time. In addition, the TGI in test [1], in [2], in test [3], in test [4], in test [5] and in test [6] was > 25 µM in each case. Moreover, the TGI in test [7], in [8], in test [9] and in [10] was > 25 µM each time.

Consider `CC[C@@H](C)/C=C(C)/C=C/C(=O)c1c(O)c(-c2ccc(O)cc2)cn(OC2CC(=O)CCC(C)OC(=O)CC2O)c1=O` (stereo not given in full), for which the GI50 was 2.36 µM in test [1]; 0.562 µM in [2]; 0.406 µM in [3]; 0.366 µM in test [4]; 0.419 µM in test [5]; 0.366 µM in [6]. In addition, the GI50 in [7] is 0.285 µM; in test [8], 0.442 µM; in test [9] it was 0.386 µM; in test [10], 0.171 µM. In addition, the TGI is > 67.2 µM in [1]; 16.4 µM in test [2]; 9.29 µM in test [3]; 17 µM in [4]; 11.5 µM in [5]; 3.84 µM in test [6]. Also, the TGI in test [7] stood at 3.05 µM; in [8] it was 19.9 µM; in [9], 4.09 µM; in test [10] it was 2.7 µM.

`Cc1c(Cl)c(C)c(Cl)c(O)c1Cl`: the TGI in test [1] was 61.2 µM; in test [2], > 100 µM; in test [3], 94 µM; in [4], > 100 µM; in test [5], 50.7 µM; in [6], > 100 µM. Further, the TGI was 63.3 µM in test [7], 82.3 µM in test [8], > 100 µM in test [9] and > 100 µM in [10].

For `Nc1c(C(=O)Nc2cccc(C(F)(F)F)c2)sc2nc3c(cc12)CCCCCC3`, the GI50 in [1] is 3.25 µM; in [2], 3.75 µM; in test [3], 2.39 µM; in test [4], 2.44 µM; in [5] it was 4.09 µM; in [6] it was 1.71 µM. The GI50 in test [7] was 1.76 µM; in [8], 2.18 µM; in [9], 1.6 µM; in test [10] it was 3.04 µM. The TGI in test [1] came to 9.92 µM; in test [2], 21.2 µM; in [3], 10.6 µM; in test [4], 11.2 µM; in test [5], 26.9 µM; in test [6] it was 3.37 µM. The TGI in [7] was found to be 11.9 µM; in [8], 5.82 µM; in test [9], 3.12 µM; in test [10], 11.2 µM.

For the molecule `Cc1cc(C)c2c(c1)N(C)c1ncnc(-n3cnc4cc(C)ccc43)c1CC2C` (stereo not given), the GI50 in [1] is 3 µM; in test [2] it was 4.1 µM; in test [3] it was 4.87 µM; in test [4] it was 3.42 µM; in [5] it was 2.07 µM; in [6], 2.74 µM. Moreover, the GI50 was 3.1 µM in [7], 7.37 µM in test [8], 3.53 µM in test [9] and 4.82 µM in [10]. The TGI in test [1] is 31 µM; in test [2], 64.1 µM; in [3] it was > 100 µM; in [4], > 100 µM; in [5], 6.53 µM; in test [6] it was 9.16 µM. The TGI is 17.9 µM in [7], > 100 µM in [8], 15.4 µM in [9] and 33.4 µM in [10].

The values above are taken from PubChem BioAssay (NCI).
